Data published in US6303366A, “Biodegradation of the gasoline oxygenates” (Envirogen, Inc., priority 1999, dated 2001).

Key:
[1] = test system: strain ENV425; experiment: Growth studies on MTBE pathway intermediates; type: cell-based, Nocardia
[2] = test system: ENV420; experiment: Gas chromatography degradation assay, washed cells; type: cell-based; conditions: 30 mg/l, 24 hours, OD550 1.0
Description: (§1) Propane-oxidizing microorganisms were grown as described above on either propane, isopropanol, ethanol or acetone, to a cell density of OD550≥0.5. The cells were then collected by centrifugation, washed with BSM, and suspended to an OD550 of 1.0. […] The vials were sealed with Teflon-lined septa and crimp seals and incubated with shaking (250 rpm) at 30° C. for at least 24 hr. Control samples were prepared by adding 50 μl of 10 mM HgCl2 to replicate vials. HgCl2 killed the microorganisms present in the vials allowing these vials to serve as controls. At pre-determined time points, 50 μl of 10 mM HgCl2 were added to the incubating sample to stop the reaction or a sub-sample of the incubating sample was removed for analysis. Degradation of MTBE, ETBE or tert-butyl alcohol (TBA) was measured by gas chromatography.
(§2) Gas chromatography was performed by first removing cells from the samples by centrifugation of the sample vial or the sub-sample. A pre-sealed 2-ml autosampler vial was partially evacuated by inserting a syringe needle through the septa and removing 500 μl of air. Five hundred μl of the clear supernatant fraction of the cell culture were then injected into the vial. The samples were then analyzed by injecting 1 μl of the sample directly into a Varians Model 3400 gas chromatograph equipped with a 30 m Vocol capillary column (Supelco) and a flame ionization detector. The column, injector, and detector were maintained isocratically at 80° C., 200° C., and 225° C., respectively. Standard curves of each compound were generated with aqueous standards of 10 ppm, 25 ppm, 50 ppm, and 100 ppm.

[3] = test system: ENV425; experiment: Gas chromatography degradation assay, washed cells; type: cell-based, Nocardia; conditions: 30 mg/l, 24 hours, OD550 1.0
Description: as §1, §2

[4] = test system: M. vaccae JOB5; experiment: Gas chromatography degradation assay, washed cells; type: cell-based, Mycobacterium vaccae; conditions: for % Degraded: 30 mg/l, 24 hours, OD550 1.0
Description: as §1, §2

[5] = test system: strain ENV425; experiment: Laboratory-scale membrane bioreactor degradation of MTBE; set-up: species or system Nocardia
Description: The BSM feed rate was 1.7 ml/min. to create a hydraulic residence time in the reactor of 2.5 days. The effluent of the reactor passed over the surface of a 100,000 mwt ultra filtration membrane (Model CR250; Raisio Flootek, Molmo, Sweden), at a flow rate of 1.2 to 2.2 ml/min at a pressure of from 1 to 1.5 psi. The retenate containing cells were passed back into the reactor, and the filtrate was discarded as the treated effluent. The reactor was operated at 30° C. at a pH of 7. […] Oxygen concentration within the reactor was monitored by using an Ingold […] and a Cole Palmer model 01971-00 oxygen monitor, and oxygen concentration was maintained at >1% air saturation by adding air or oxygen directly to the reactor.

[6] = test system: anaerobic sediment samples; conditions: the one active sample; more than 152 days of incubation; cited from earlier work
[7] = test system: Eubacterium limosum; conditions: anaerobic; cited from earlier work
[8] = test system: Acetobacterium woodii; conditions: anaerobic; cited from earlier work
[9] = test system: ENV425; experiment: Field-scale membrane bioreactor treating MTBE-contaminated groundwater; set-up: species or system Nocardia; conditions: for % Removed: continuous operation
Text: Propane oxidizing bacteria were deployed in a field-scale membrane bioreactor (MBR) system to treat MTBE-contaminated groundwater at an oil refinery. An MBR is a type of suspended growth reactor.
The MBR system used in the present example consisted of a 1000-gallon tank equipped with a variable speed mixer, an air diffuser capable of providing up to 600 ft^3 of air per hour, an automated pH controller, and nutrient and caustic feed systems. Soda ash was used to control pH, and a soluble fertilizer, in this case fish oil emulsion, was used as a nutrient. (Other types of soluble agricultural fertilizer can be used to supply nutrients.) The weight ratio of the nutrient comprised approximately 100 parts carbon:10 parts nitrogen:1 part phosphate. The fertilizer was added continuously to the influent contaminant stream by using a LMI model A771-152S chemical metering pump. The liquid level in the reactor was controlled by using two Dwyer model 603-A level transmitters set to maintain a reactor liquid volume of from 700 to 900 gallons.
The pH was monitored and controlled by using a Rosemount model 1055APH pH analyzer/controller and a Rosemount model 385-2-8-54 pH sensor that measured pH in the reactor. Caustic was added to the influent feed line by using an LMI model A771-152S chemical metering pump. Effluent from the reactor was passed over dual ultrafiltration membranes (Rhone Poulenc model SC37/KO9; 17.22 ft^2 of membrane surface) connected in series, then into a proof tank and then a holding tank prior to discharge into the plant's sewer system.
Operation of the reactor system was initiated by adding 225 gallons of water to the reactor and then adding concentrated BSM solution (see above) to the reactor to create a liquid concentration of 1×BSM. Twenty liters of frozen propane-grown ENV425 that had been grown in a laboratory fermentor in BSM medium with propane as a sole source of carbon and energy was frozen prior to shipment, then thawed and added directly to the water in the reactor. […] After addition to the reactor, the ENV425 was mixed well until dispersed. Then, 1.1 L of isopropanol were added while the reactor was mixing. The reactor was operated for 1.5 days until the culture became turbid. The reactor volume was then increased to 800 gallons, additional BSM was added to a final concentration of 1×BSM and an additional 3.8 L of isopropanol were added.
This initial operation was termed the "batch phase" and was used to ensure equilibration of the reactor prior to initiating continuous feed operation.
Reactor effluent was passed over the ultrafiltration membranes and retenate, containing the propane-oxidizing bacteria, was returned to the reactor. Filtrate was passed to the proof tank, and a portion of the filtrate was pumped back into the reactor to maintain an appropriate liquid volume. This was done because the flux through the membrane (40 gal./day/ft^2 of membrane) was greater than the feed rate to the reactor. Some of the return liquid passed through a spray nozzle at the top of the reactor to control reactor foaming. […] Additionally, periodic samples of the reactor headspace were sampled to estimate MTBE stripping in the reactor.
Isopropanol was used to rapidly increase biomass in the reactor and to maintain high levels of activity by the propane-oxidizing bacteria.

[10] = rat model studies; oral; cited from earlier work
[11] = test system: TXR mixed culture of naturally-occurring propane-oxidizing bacteria; experiment: [^14 C]MTBE assay; type: cell-based; conditions: propane-grown, OD550 1.0, overnight, 0.5 μCi [^14 C]MTBE (2 μM MTBE)
[12] = test system: ENV425; experiment: [^14 C]MTBE assay; type: cell-based, Nocardia
[13] = test system: M. vaccae JOB5; experiment: [^14 C]MTBE assay; type: cell-based, Mycobacterium vaccae; conditions: propane-grown, OD550 1.0, overnight, 0.5 μCi [^14 C]MTBE (2 μM MTBE)
[14] = test system: mixed culture of propane-oxidizing bacteria (TXR); experiment: Degradation of tetrahydrofuran; type: cell-based; conditions: propane-grown; OD550 2.0; 40 mg/L; 48 hours; room temperature
Description: (§3) To test the ability of propane oxidizing bacteria to degrade other environmentally-significant ether pollutants, ENV425 and a mixed culture of propane oxidizing bacteria from a laboratory bioreactor were incubated with tetrahydrofuran, and the degradation of tetrahydrofuran was measured after 48 hours. Cells of ENV425 and a mixed bioreactor culture of propane-oxidizing bacteria (termed "TXR") were grown in BSM medium with propane as the sole source of carbon and energy, collected by centrifugation, washed with BSM, and suspended in BSM to an optical density at 550 nm of 2.0. Five ml of the cell suspensions were added to 15 mL serum vials, and the vials were sealed with Teflon-lined septa and crimp tops. Vials containing BSM but no cells served as controls. Tetrahydrofuran was injected through the septa to create a final liquid concentration of 40 mg/L. The vials were then incubated at room temperature for 48 hours and analyzed by gas chromatography of subsamples of the vial headspace gas. Gas chromatography was performed as described for MTBE analysis.

[15] = test system: ENV425; experiment: Degradation of tetrahydrofuran; type: cell-based, Nocardia; conditions: propane-grown; OD550 2.0; 40 mg/L; 48 hours; room temperature
Description: as §3

## CC(O)(CO)C(=O)O (stereo not drawn) [2,3-dihydroxy-2-methyl propionic acid]
[1]
  growth of strain ENV425 on the substance: grows on

## CC(C)O [2-propanol]
[1]
  growth of strain ENV425 on the substance: does occur

## CCOC(C)(C)C [ETBE, ethyl-tert-butyl ether]
[2]; grown on ethanol
  % Degraded: 31%
[2]; grown on propane
  % Degraded: 0%
[3]; grown on isopropanol
  % Degraded: 14%
[3]; grown on propane
  % Degraded: 26%
[4]; grown on isopropanol
  % Degraded: 80%
[4]; grown on propane
  % Degraded: 100%

## CC(C)(O)C(=O)O [HIBA, 2-hydroxy isobutyric acid]
[1]
  growth of strain ENV425 on the substance: does not grow well

## COC(C)(C)C [MTBE, methyl-tert-butyl ether]
[2]; grown on ethanol
  % Degraded: 86%
[2]; grown on propane
  % Degraded: 50%
[5]; 2.5 day hydraulic retention time
  MTBE added to the reactor removed: Greater than 95%
[5]; typically
  MTBE stripping from the reactor, of the influent MTBE mass: < 5%
[3]; grown on isopropanol
  % Degraded: 71%
[3]; grown on propane
  % Degraded: 67%
[4]; grown on isopropanol
  % Degraded: 93%
[4]; grown on propane
  % Degraded: 100%
[4]; propane-grown, 518 μM (46 ppm) MTBE, within 24 hr
  degraded % of the added MTBE: 100%
[6]
  transformation of MTBE: about 50%
[7]
  degradation by resting cells: not degraded
[8]
  degradation by resting cells: not degraded
[9]; 3/7
  MTBE Loss % (volatilization): 9.6%
[9]; 3/25
  MTBE Loss % (volatilization): 0.9%
[9]; 4/1
  MTBE Loss % (volatilization): 6.8%
[9]; 4/8
  MTBE Loss % (volatilization): 4.6%
[9]; 4/15
  MTBE Loss % (volatilization): 2.1%
[9]; Averages
  MTBE Loss % (volatilization): 4.5%
[9]; 1/29, T-101 MTBE 100 mg/l
  % Removed: 96.4%
[9]; 2/2, T-101 MTBE 250 mg/l
  % Removed: 97.9%
[9]; 2/12, T-101 MTBE 240 mg/l
  % Removed: 91.7%
[9]; 2/16, T-101 MTBE 200 mg/l
  % Removed: 95.3%
[9]; 2/19, T-101 MTBE 280 mg/l
  % Removed: 96.1%
[9]; 2/26, T-101 MTBE 410 mg/l
  % Removed: 99.6%
[9]; 3/1, T-101 MTBE 780 mg/l
  % Removed: 96.9%
[9]; 3/4, T-101 MTBE 680 mg/l
  % Removed: 96.5%
[9]; 3/7, T-101 MTBE 770 mg/l
  % Removed: 96.1%
[9]; 3/11, T-101 MTBE 2000 mg/l
  % Removed: 97.0%
[9]; 3/14, T-101 MTBE 1100 mg/l
  % Removed: 92.0%
[9]; 3/18, T-101 MTBE 1900 mg/l
  % Removed: 99.5%
[9]; 3/21, T-101 MTBE 1600 mg/l
  % Removed: 92.5%
[9]; 3/25, T-101 MTBE 1590 mg/l
  % Removed: 97.0%
[9]; 3/28, T-101 MTBE 2000 mg/l
  % Removed: 95.4%
[9]; 4/1, T-101 MTBE 2200 mg/l
  % Removed: 96.8%
[9]; 4/4, T-101 MTBE 2400 mg/l
  % Removed: 98.0%
[9]; 4/8, T-101 MTBE 1700 mg/l
  % Removed: 94.6%
[9]; Avg., T-101 MTBE 1083 mg/l
  % Removed: 96.2%
[9]; during the demonstration
  Loss of MTBE caused by stripping/volatilization, averaged: 4.5%
[9]; field and laboratory testing, hydraulic retention time 2.5 to 3.3 days
  influent MTBE degraded: > 90%
[9]; throughout the demonstration, MTBE 40 mg/L to >2000 mg/L
  MTBE removal: Greater than 90%
[10]
  no-observable-adverse-effect-level (NOAEL): 100 mg/kg/day

## CC(C)(C)O [TBA, tertiary-butyl alcohol]
[2]; grown on ethanol
  % Degraded: 56%
[2]; grown on propane
  % Degraded: 10%
[3]; grown on isopropanol
  % Degraded: 0%
[3]; grown on propane
  % Degraded: 23%
[4]; grown on isopropanol
  % Degraded: 11%
[4]; grown on propane
  % Degraded: 45%
[4]; propane-grown, within 24 hr
  degraded % of the added TBA: 100%

## [14CH3]O[14C]([14CH3])([14CH3])[14CH3] [[^14 C]MTBE]
[11]
  Percent of added [^14 C] in particulate fraction: 0%
[11]; mean (SD) of three
  Percent of added [^14 C] in CO2 fraction: 53(1) Percent
  Percent of added [^14 C] in liquid fraction: 46(1.5) Percent
[12]; env425
  added [^14 C]MTBE converted to ^14 CO2: > 65%
[12]; propane-grown, OD550 5.0, overnight, 0.5 μCi [^14 C]MTBE (2 μM MTBE)
  Percent of added [^14 C] in CO2 fraction: 41%
[13]
  Percent of added [^14 C] in particulate fraction: 0%
[13]; mean (SD) of three
  Percent of added [^14 C] in CO2 fraction: 27(2) Percent
  Percent of added [^14 C] in liquid fraction: 71(2) Percent

## CC(=O)O [acetic acid]
[1]
  growth of strain ENV425 on the substance: does occur

## CC(C)=O [acetone]
[1]
  growth of strain ENV425 on the substance: does occur

## CC(=O)CO [hydroxyacetone]
[1]
  growth of strain ENV425 on the substance: does occur

## CC(O)C(=O)O (stereo not drawn) [lactic acid]
[1]
  growth of strain ENV425 on the substance: grows on

## C=C(C)C(=O)O [methacrylic acid]
[1]
  growth of strain ENV425 on the substance: grows on

## C1CCOC1 [tetrahydrofuran]
[14]
  tetrahydrofuran degraded: 100%
[15]
  tetrahydrofuran degraded: 100%
